Assay results from patent US11446282B2, “Methods of treating mixed dyslipidemia and hypertriglycertdemia” (Kowa Company, Ltd., priority 2017, dated 2022).

Legend:
[1] = system: apolipoprotein (Apo) A1 transgenic mice; test: TG decrease and HDL-C increase in Apo A1 transgenic mice; format: in vivo; settings: versus fenofibrate
PPARα = target: T1, PPARα (Homo sapiens, UniProt Q07869); test: PPARα-activating effect (EC50); format: biochemical
T1 sequence (Q07869 1-468): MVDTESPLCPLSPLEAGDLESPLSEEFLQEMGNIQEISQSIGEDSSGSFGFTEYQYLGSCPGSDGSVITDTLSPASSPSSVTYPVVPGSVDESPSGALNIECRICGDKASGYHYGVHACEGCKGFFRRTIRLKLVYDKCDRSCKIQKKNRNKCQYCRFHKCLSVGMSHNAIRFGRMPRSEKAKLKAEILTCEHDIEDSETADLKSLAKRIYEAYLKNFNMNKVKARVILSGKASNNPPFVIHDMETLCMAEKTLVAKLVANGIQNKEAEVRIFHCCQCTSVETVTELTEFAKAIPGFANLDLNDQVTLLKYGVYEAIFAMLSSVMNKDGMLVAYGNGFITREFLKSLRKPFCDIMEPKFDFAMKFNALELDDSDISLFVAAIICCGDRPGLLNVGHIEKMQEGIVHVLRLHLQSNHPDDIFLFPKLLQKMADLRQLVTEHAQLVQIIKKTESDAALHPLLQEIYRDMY

CC[C@@H](Oc1cccc(CN(CCCOc2ccc(OC)cc2)c2nc3ccccc3o2)c1)C(=O)O [Pemafibrate, (2R)-2-[3-({1,3-benzoxazol-2-yl[3-(4-methoxyphenoxy)propyl]amino}methyl)phenoxy]butanoic acid]
potency in decreasing TG and increasing HDL-C [1]: more potent than fenofibrate
specificity for the PPARα receptor (PPARα; versus fenofibrate): more specific
times more active than fenofibric acid in terms of the EC50 of the PPARα-activating effect (PPARα; versus fenofibric acid): approximately 2500 times
